Source: patent US10800792B2, “Inhibitors of Bruton's tyrosine kinase and method of their use” (JANSSEN PHARMACEUTICA NV, priority 2015, dated 2020)

Molecular target: unphosphorylated-BTK kinase domain (UP-BTK), GST-tagged human BTK (389-659aa) (Homo sapiens (Human), UniProt Q06187)
Test: BTK kinase Lanthascreen binding assay
Settings: pIC50 = negative log of the IC50 in molar, 60 minutes incubation, 50 nM Tracer 236
Summary of the method: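 Measures how well compounds compete with a fluorescence-labelled tracer for binding to BTK in its unphosphorylated state. IC50 values were fitted and expressed as pIC50 (negative logarithm of the molar IC50).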

Chain of unphosphorylated-BTK kinase domain (UP-BTK), GST-tagged human BTK (389-659aa) (Q06187 389-659): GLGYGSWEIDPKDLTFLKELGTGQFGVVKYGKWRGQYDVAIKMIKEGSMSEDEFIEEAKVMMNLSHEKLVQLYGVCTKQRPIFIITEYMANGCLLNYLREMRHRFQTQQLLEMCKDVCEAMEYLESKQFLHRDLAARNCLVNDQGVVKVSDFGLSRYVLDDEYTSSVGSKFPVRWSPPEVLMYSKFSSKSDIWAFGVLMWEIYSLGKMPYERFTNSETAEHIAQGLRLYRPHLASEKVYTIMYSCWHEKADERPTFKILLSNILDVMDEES

SMILES	BTK_I_binding pIC50	IC50 (read-out: BTK_I_binding pIC50 (converted)) [nM]
CO[C@H]1CNC[C@H](NC(=O)c2sc3nccc4c3c2NC(=O)N4c2ccc(Oc3ccccc3)cc2C)C1 [Example 224, N-((3R,5R)-5-Methoxypiperidin-3-yl)-5-(2-methyl-4-phenoxyphenyl)-4-oxo-4,5-dihydro-3H-1-thia-3,5,8-triazaacenaphthylene-2-carboxamide]	6.8	
CC(C)=CC(=O)N1CCC[C@@H](NC(=O)c2sc3nccc4c3c2NC(=O)N4c2ccc(Oc3ccccc3)cc2C)C1 [Example 225, (R)-5-(2-Methyl-4-phenoxyphenyl)-N-(1-(3-methylbut-2-enoyl)piperidin-3-yl)-4-oxo-4,5-dihydro-3H-1-thia-3,5,8-triazaacenaphthylene-2-carboxamide]	6.7	
COCc1cccc(Oc2ccc(N3C(=O)Nc4c(C(=O)N[C@@H]5CCCN(C)C5)sc5nccc3c45)c(C)c2)c1 [Example 226, (R)-5-(4-(3-(Methoxymethyl)phenoxy)-2-methylphenyl)-N-(1-methylpiperidin-3-yl)-4-oxo-4,5-dihydro-3H-1-thia-3,5,8-triazaacenaphthylene-2-carboxamide]	6.5	
Cc1cc(Oc2ccccc2OC(F)(F)F)ccc1N1C(=O)Nc2c(C(=O)N[C@@H]3CCCN(C)C3)sc3nccc1c23 [Example 227, (R)-5-(2-Methyl-4-(2-(trifluoromethoxy)phenoxy)phenyl)-N-(1-methylpiperidin-3-yl)-4-oxo-4,5-dihydro-3H-1-thia-3,5,8-triazaacenaphthylene-2-carboxamide]	6.5	
Cc1cc(Oc2ccccc2)ccc1N1C(=O)Nc2c(C(=O)N[C@@H]3CCCN(C(=O)/C(F)=C/C4CC4)C3)sc3nccc1c23 [Example 228, (R,Z)—N-(1-(3-Cyclopropyl-2-fluoroacryloyl)piperidin-3-yl)-5-(2-methyl-4-phenoxyphenyl)-4-oxo-4,5-dihydro-3H-1-thia-3,5,8-triazaacenaphthylene-2-carboxamide]	6.6	
Cc1cc(Oc2ccccc2)ccc1N1C(=O)Nc2c(C(=O)NC3CN(C(=O)/C(C#N)=C/C4CC4)C3)sc3nccc1c23 [Example 229, (E)-N-(1-(2-Cyano-3-cyclopropylacryloyl)azetidin-3-yl)-5-(2-methyl-4-phenoxyphenyl)-4-oxo-4,5-dihydro-3H-1-thia-3,5,8-triazaacenaphthylene-2-carboxamide]	6.7	
Cc1cc(Oc2ccccc2)ccc1N1C(=O)Nc2c(C(=O)NC3CN(C4CC4)C3)sc3nccc1c23 [Example 230, N-(1-Cyclopropylazetidin-3-yl)-5-(2-methyl-4-phenoxyphenyl)-4-oxo-4,5-dihydro-3H-1-thia-3,5,8-triazaacenaphthylene-2-carboxamide]	6.4	
Cc1cc(OC2CCOCC2)ccc1N1C(=O)Nc2c(C(=O)N[C@@H]3CCCN(C(=O)/C(C#N)=C/C4CC4)C3)sc3nccc1c23 [Example 233, (R,E)-N-(1-(2-Cyano-3-cyclopropylacryloyl)piperidin-3-yl)-5-(2-methyl-4-((tetrahydro-2H-pyran-4-yl)oxy)phenyl)-4-oxo-4,5-dihydro-3H-1-thia-3,5,8-triazaacenaphthylene-2-carboxamide]	7.2	
O=C(N[C@@H]1CCCNC1)c1sc2nccc3c2c1NC(=O)N3c1c(F)cc(Oc2ccccc2)cc1F [Example 235, (R)-5-(2,6-difluoro-4-phenoxyphenyl)-4-oxo-N-(piperidin-3-yl)-4,5-dihydro-3H-1-thia-3,5,8-triazaacenaphthylene-2-carboxamide]	7.0	
Cc1cc(Oc2ccccc2)ccc1N1C(=O)Nc2c(C(=O)N[C@H]3CNC[C@@H]3O)sc3nccc1c23 [Example 236, N-((3S,4S)-4-Hydroxypyrrolidin-3-yl)-5-(2-methyl-4-phenoxyphenyl)-4-oxo-4,5-dihydro-3H-1-thia-3,5,8-triazaacenaphthylene-2-carboxamide]	7.0	
Cc1cc(Oc2ccccc2)ccc1N1C(=O)Nc2c(C(=O)NC3CCCN(C(=O)/C=C/CNC(=O)CCCC(=O)NCCCOCCOCCOCCCNC(=O)CCCC[C@H]4SC[C@@H]5NC(=O)N[C@@H]54)C3)sc3nccc1c23 (stereo partly drawn) [Example 237, N^1-((E)-4-(3-(5-(2-methyl-4-phenoxyphenyl)-4-oxo-4,5-dihydro-3H-1-thia-3,5,8-triazaacenaphthylene-2-carboxamido)piperidin-1-yl)-4-oxobut-2-en-1-yl)-N5-(15-oxo-19-((3aS,4R,6aR)-2-oxohexahydro-1H-thieno[34-d]imidazol-4-yl)-4,7,10-trioxa-14-azanonadecyl)glutaramide]	6.9	
CNC(C)(C)/C=C(\C#N)C(=O)N1CCC[C@@H](NC(=O)c2sc3nccc4c3c2NC(=O)N4c2ccc(Oc3ccccc3)cc2C)C1 [Example 238, (R,E)-N-(1-(2-Cyano-4-methyl-4-(methylamino)pent-2-enoyl)piperidin-3-yl)-5-(2-methyl-4-phenoxyphenyl)-4-oxo-4,5-dihydro-3H-1-thia-3,5,8-triazaacenaphthylene-2-carboxamide]	6.8	
Cc1cc(Oc2ccccc2)ccc1N1C(=O)Nc2c(C(=O)NC3CN(C(=O)CCS(C)(=O)=O)C3)sc3nccc1c23 [Example 240]		200

The next lines start with the values.

BTK_I_binding pIC50	IC50 (read-out: BTK_I_binding pIC50 (converted)) [nM]	SMILES
6.7		Cc1cc(Oc2ccccc2)ccc1N1C(=O)Nc2c(C(=O)N[C@H]3CNC[C@H]3O)sc3nccc1c23 [Example 241, N-((3S,4R)-4-hydroxypyrrolidin-3-yl)-5-(2-methyl-4-phenoxyphenyl)-4-oxo-4,5-dihydro-3H-1-thia-3,5,8-triazaacenaphthylene-2-carboxamide]
6.7		Cc1cc(Oc2ccccc2C(F)(F)F)ccc1N1C(=O)Nc2c(C(=O)N[C@@H]3CCCN(C)C3)sc3nccc1c23 [Example 242, (R)-5-(2-Methyl-4-(2-(trifluoromethyl)phenoxy)phenyl)-N-(1-methylpiperidin-3-yl)-4-oxo-4,5-dihydro-3H-1-thia-3,5,8-triazaacenaphthylene-2-carboxamide]
6.6		Cc1cc(Oc2ccccc2)ccc1N1C(=O)Nc2c(C(=O)N[C@H]3CN(C)C[C@@H]3O)sc3nccc1c23 [Example 243, N-((3S,4S)-4-Hydroxy-1-methylpyrrolidin-3-yl)-5-(2-methyl-4-phenoxyphenyl)-4-oxo-4,5-dihydro-3H-1-thia-3,5,8-triazaacenaphthylene-2-carboxamide]
6.6		CO[C@H]1CN(C)C[C@@H]1NC(=O)c1sc2nccc3c2c1NC(=O)N3c1ccc(Oc2ccccc2)cc1C [Example 244, N-((3S,4S)-4-Methoxy-1-methylpyrrolidin-3-yl)-5-(2-methyl-4-phenoxyphenyl)-4-oxo-4,5-dihydro-3H-1-thia-3,5,8-triazaacenaphthylene-2-carboxamide]
6.6		CO[C@H]1CNC[C@@H]1NC(=O)c1sc2nccc3c2c1NC(=O)N3c1ccc(Oc2ccccc2)cc1C [Example 245, N-((3S,4S)-4-Methoxypyrrolidin-3-yl)-5-(2-methyl-4-phenoxyphenyl)-4-oxo-4,5-dihydro-3H-1-thia-3,5,8-triazaacenaphthylene-2-carboxamide]
6.5		COCCC(=O)N1CC(NC(=O)c2sc3nccc4c3c2NC(=O)N4c2ccc(Oc3ccccc3)cc2C)C1 [Example 246, N-(1-(3-Methoxypropanoyl)azetidin-3-yl)-5-(2-methyl-4-phenoxyphenyl)-4-oxo-4,5-dihydro-3H-1-thia-3,5,8-triazaacenaphthylene-2-carboxamide]
6.5		Cc1cc(Oc2ccccc2)ccc1N1C(=O)Nc2c(C(=O)N[C@@H]3CCCN(C(=O)/C=C/C(C)C)C3)sc3nccc1c23 [Example 247, (R,E)-5-(2-Methyl-4-phenoxyphenyl)-N-(1-(4-methylpent-2-enoyl)piperidin-3-yl)-4-oxo-4,5-dihydro-3H-1-thia-3,5,8-triazaacenaphthylene-2-carboxamide]
6.5		Cc1cc(Oc2ccccc2)ccc1N1C(=O)Nc2c(C(=O)NC3CN(C)C3)sc3nccc1c23 [Example 248, 5-(2-Methyl-4-phenoxyphenyl)-N-(1-methylazetidin-3-yl)-4-oxo-4,5-dihydro-3H-1-thia-3,5,8-triazaacenaphthylene-2-carboxamide]
6.4		Cc1cc(OC2CCCCC2)ccc1N1C(=O)Nc2c(C(=O)N[C@@H]3CCCN(C)C3)sc3nccc1c23 [Example 250, (R)-5-(4-(Cyclohexyloxy)-2-methylphenyl)-N-(1-methylpiperidin-3-yl)-4-oxo-4,5-dihydro-3H-1-thia-3,5,8-triazaacenaphthylene-2-carboxamide]
6.4		CCN1CC(NC(=O)c2sc3nccc4c3c2NC(=O)N4c2ccc(Oc3ccccc3)cc2C)C1 [Example 251, N-(1-Ethylazetidin-3-yl)-5-(2-methyl-4-phenoxyphenyl)-4-oxo-4,5-dihydro-3H-1-thia-3,5,8-triazaacenaphthylene-2-carboxamide]
6.4		Cc1cc(Oc2ccccc2)ccc1N1C(=O)Nc2c(C(=O)NC3CNC3)sc3nccc1c23 [Example 252, N-(azetidin-3-yl)-5-(2-methyl-4-phenoxyphenyl)-4-oxo-4,5-dihydro-3H-1-thia-3,5,8-triazaacenaphthylene-2-carboxamide]
6.6		C=CC(=O)N1CCC[C@@H](NC(=O)c2sc3nccc4c3c2NC(=O)N4c2ccc(OC)cc2)C1 [Example 254]
6.6		C=CC(=O)N1CCC[C@@H](NC(=O)c2sc3nccc4c3c2NC(=O)N4c2ccc(F)cc2)C1 [Example 255, (R)—N-(1-Acryloylpiperidin-3-yl)-5-(4-fluorophenyl)-4-oxo-4,5-dihydro-3H-1-thia-3,5,8-triazaacenaphthylene-2-carboxamide]
6.6		C=CC(=O)N1CCC[C@@H](NC(=O)c2sc3nccc4c3c2NC(=O)N4c2ccc(Cl)cc2)C1 [Example 256, (R)—N-(1-Acryloylpiperidin-3-yl)-5-(4-chlorophenyl)-4-oxo-4,5-dihydro-3H-1-thia-3,5,8-triazaacenaphthylene-2-carboxamide]
